How the values were obtained:
AmvR [1] = molecular target: T1, AmvR (Acinetobacter baumannii, UniProt A0A0D5YGI2); test: nanoDSF isothermal analysis (Kd at […] °C); weak, DSF shift only +[…] °C; type: binding
T1 construct: gene ABUW_1678; AmvR (amvR amplified from A. baumannii ATCC17978 genomic DNA) carrying a C-terminal hexahistidine tag; dimer in solution

AmvR [2] = molecular target: T1, AmvR; test: nanoDSF isothermal analysis (Kd at […] °C); DSF shift +[…] °C; type: binding
[3] = molecular target: AmvR (Acinetobacter baumannii ATCC17978); test: SEC; analytical SEC on Superdex 200 10/300 GL; elution volume compared with MW standards (HMW and LMW calibration sets)

NCCCCN [putrescine]
Kd (AmvR [1]): 260 µM

NCCCCNCCCN [spermidine]
Kd (AmvR [2]): 9.5 µM

NCCCNCCCCNCCCN [spermine]
Kd (AmvR [2]): 5.4 µM

AmvR (natural protein)
stoichiometry N [3]: 2

Reference: paper PMC8458285, “The Acinetobacter baumannii disinfectant resistance protein, AmvA, is a spermidine and spermine efflux pump” (Communications Biology, 2021)
